Data taken from patent publication US20240252668A1, “ANTIBODY DRUG CONJUGATES AND METHODS FOR MAKING THEREOF” (Novartis AG, priority 2021, published 2024).
Read-outs that look alike come from different tables or passages of the source. Starred links: 1 amine or outer side, 2 acyl side, 3 side chain; linkers in the order of their positions; H or OH if unused. Positions of bridges follow the written chain, without caps; N, C: chain ends. Non-standard residues stand in square brackets, D forms with d. Residues, ends and D or L forms follow the SMILES beside them. ξ: configuration not given here. *: point of attachment. Leu(3R-OH,Nα-propionyl) = CCC(=O)N[C@H](C(=O)*)[C@H](O)C(C)C; X1 = CC(C)[C@@H](O[*:3])[C@H](N[*:1])C(=O)[*:2]; X3 = CC(C)C(O[*:3])C(N[*:1])C(=O)[*:2]; ξLeu(3ξ-OH) = CC(C)C(O)C(N)C(=O)O; NMeT = CN[CH](C(=O)O)[CH](C)O; dPhLac = O=C(O)[C@H](O)Cc1ccccc1; PhLac = O=C(O)[CH](O)Cc1ccccc1; NMeA = CN[CH](C)C(=O)O; NMeDha = C=C(NC)C(=O)O

Experiments:
[1] = test system: 92.1 and MP41 cell lines (GNAQ/GNA11 mutant uveal melanoma); test: Cell proliferation assays, potency ranking over both uveal melanoma lines; format: cell-based; details: 92.1 and MP41 cell lines
Source text: The selective antiproliferative profile of the chromodepsins against GNAQ/GNA11 mutant cell lines is confirmed by the lack of activity against the A375 and SK MEL 30 cell lines that are independent from GNAQ/GNA11 signaling. The potency ranking using the 92.1 and MP41 cell lines is in good agreement with the previously SAR studies. […] These findings are in line with a recent report from Voss et al., highlighting the importance of the “lipophilic anchors” of compound (A1) at the residues varied in compounds 2 and 3, in context of binding kinetics and prolonged residence time on the target proteins. The retained potency of compound 4 indicates a promising exit vector for potential synthetic or biosynthetic modifications of the scaffold. […] The linearized depsipeptides compounds 5-7 lack any antiproliferative activity. In this experimental setup, the cellular permeability of the compounds was a crucial factor contributing to the observed antiproliferative potency. Therefore, all compounds were characterized in a low efflux MCDK assay and determined their exposed polar surface areas (EPSA) in order to assess their passive cellular permeabilities. All macrocyclic chromodepsins that feature the N acyl Hle side chain show similar results concerning their % fraction absorbed (% FA; average ˜60% FA+20%) and EPSA values.
Cell Proliferation Assays with Chromodepsins (compounds (A1) and 2-15): Cell line descriptions: 92.1—uveal melanoma cell line, derived from primary tumor, harboring heterozygous GNAQ Q209L mutation. Purchased from Sigma Aldrich. MP41 (CRL-3297) -uveal melanoma cell line, derived from primary tumor, harboring heterozygous GNA11 Q209L mutation. Purchased from ATCC. A375—skin melanoma cell line, harboring homozygous BRAF V600E mutation. Origin: Cancer Cell Line Encyclopedia (CCLE). SK-MEL-30—skin melanoma cell line, harboring heterozygous NRAS Q61K mutation. Origin: CCLE.
Cells were cultured in 96-well plates in a total volume of 100 μL at 37° C., 5% CO2 and 95% relative humidity. All cell lines were cultured in RPMI Medium (RPMI 1640 w/o L-glutamine, Bioconcept ref. 1-41F01-I) except A375, DMEM medium (DMEM high glucose (4.5 g/L), Bioconcept, ref. 1-26F01-I), and supplemented with 10% FCS (Bioconcept, ref. 2-01F30-I). Two to three thousand cells were seeded in 96-well plates per well the night before they were treated with compounds (concentration range: from 260 nM to 0.036 nM with ⅓ dilution steps; for 7 the concentration range was increased from 10000 nM to 1.52 nM with ⅓ dilution steps). Cell viability was measured by addition of 10 ul of resazurin per well after 96 hours of treatment. Results were analyzed and plotted using GraphPad Prism 9.0.1.

[2] = EPSA determination by supercritical fluid chromatography; format: physicochemical; details: for EPSA: modified EPSA method, SFC
How it was run: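 SFC on a Chirex 3014 column ([…], 3×100 mm, 100 Å). Gradient runs linearly from 5% to 60% methanol containing 20 mM ammonium formate, in scCO2, over 4.5 min.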

[3] = test system: MP41 uveal melanoma cell line (heterozygous GNA11 Q209L); test: Cell proliferation assay (resazurin cell viability), MP41 cell line; format: cell-based
How it was run: (§1)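 Cells seeded the night before, then treated 96 h at 37 °C in RPMI/10% FCS (A375 in DMEM/10% FCS); compounds 260 nM to 0.036 nM in ⅓ dilution steps, one compound 10000 nM to 1.52 nM. Viability read by resazurin addition after 96 h.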

[4] = test system: A375 skin melanoma cell line (homozygous BRAF V600E); test: Cell proliferation assay (resazurin cell viability), A375 cell line; format: cell-based
How it was run: as §1

MDCK-LE monolayers = test: Cell-based transwell assay with MDCK-low efflux monolayers (passive permeability); format: in vitro ADME; details: for % Fraction absorbed / % Recovery / Papp A − B: MDCK-LE monolayers
Method: Cell-based transwell assays with MDCK-low efflux monolayers: Compounds (A1) and 2-15 were tested in MDCK cell sub-clones with low effluxt ransporter activity (MDCK-LE) in order to determine their passive permeability. The incubations were performed at a contract research organization as described previously.

[5] = test system: SK-MEL-30 skin melanoma cell line (heterozygous NRAS Q61K); test: Cell proliferation assay (resazurin cell viability), SK-MEL-30 cell line; format: cell-based
How it was run: as §1

[6] = test system: 92.1 uveal melanoma cell line (heterozygous GNAQ Q209L); test: Cell proliferation assay (resazurin cell viability), 92.1 cell line; format: cell-based
How it was run: as §1

Gαq proteins = details: as has been reported; dynamic mass redistribution; cited from earlier work
[7] = MP41 (GNA11 Q209L), 96 hours of treatment, read-out: GI50 by cell line, MP41
[8] = MP41 cell line, average of Rep. 1 and 2, read-out: GI50 MP41 Average
[9] = MP41 cell line, replicate 1, read-out: GI50 MP41 Rep. 1
[10] = MP41 cell line, replicate 2, read-out: GI50 MP41 Rep. 2
[11] = A375 (GNAQ/11 wild type), 96 hours of treatment, read-out: GI50 by cell line, A375
[12] = A375 cell line, average of Rep. 1 and 2, read-out: GI50 A375 Average
[13] = A375 cell line, replicate 1, read-out: GI50 A375 Rep. 1
[14] = A375 cell line, replicate 2, read-out: GI50 A375 Rep. 2
[15] = SK-MEL-30 (GNAQ/11 wild type), 96 hours of treatment, read-out: GI50 by cell line, SK-MEL-30
[16] = SK-MEL-30 cell line, average of Rep. 1 and 2, read-out: GI50 SK-MEL-30 Average
[17] = SK-MEL-30 cell line, replicate 1, read-out: GI50 SK-MEL-30 Rep. 1
[18] = SK-MEL-30 cell line, replicate 2, read-out: GI50 SK-MEL-30 Rep. 2
[19] = 92.1 (GNAQ Q209L), 96 hours of treatment, read-out: GI50 by cell line, 92.1
[20] = 92.1 cell line, average of Rep. 1 and 2, read-out: GI50 92.1 Average
[21] = 92.1 cell line, replicate 1, read-out: GI50 92.1 Rep. 1
[22] = 92.1 cell line, replicate 2, read-out: GI50 92.1 Rep. 2
[23] = versus macrocyclic chromodepsins with N-acyl-Hle side chain

| SMILES | loss of potency compared to compound (A1) (growth inhibition) [1] | EPSA [2] | GI50 [3, 7] | GI50 [3, 8] | GI50 [3, 9] | GI50 [3, 10] | GI50 [4, 11] | GI50 [4, 12] | GI50 [4, 13] | GI50 [4, 14] | % Fraction absorbed (MDCK-LE monolayers) | % Recovery (MDCK-LE monolayers) | Papp A − B (MDCK-LE monolayers) | GI50 [5, 15] | GI50 [5, 16] | GI50 [5, 17] | GI50 [5, 18] | GI50 [6, 19] | GI50 [6, 20] | GI50 [6, 21] | other results |
| --- | --- | --- | --- | --- | --- | --- | --- | --- | --- | --- | --- | --- | --- | --- | --- | --- | --- | --- | --- | --- | --- |
| C=C1C(=O)N[C@@H](C)C(=O)N(C)[C@@H](C)C(=O)N[C@@H]([C@H](OC(=O)[C@@H](NC(=O)CC)[C@H](O)C(C)C)C(C)C)C(=O)N(C)[C@@H]([C@@H](C)OC)C(=O)O[C@H](C)[C@H](NC(C)=O)C(=O)O[C@H](Cc2ccccc2)C(=O)N1C [Compound 14] (Ac-T[dPhLac][NMeDha]A[NMeA][X1](Leu(3R-OH,Nα-propionyl))[NMeT](Me); ester 1-C) | ~10 fold | 95 A^2 | 2.2 nM | 2.2 nM | 1.5 nM | 2.81 nM | > 260 nM | > 260 nM | > 260 nM | > 260 nM | 53.3% | 85% | 3.32 ×10⁻⁶ cm/s | > 260 nM | > 260 nM | > 260 nM | > 260 nM | 5.2 nM | 5.2 nM | 2.95 nM | GI50 [6, 22]: 7.53 nM |
| C=C1C(=O)NC(C)C(=O)N(C)C(C)C(=O)NC(C(O)C(C)C)C(=O)N(C)C(C(C)OC)C(=O)OC(C(C)C)C(NC(C)=O)C(=O)OC(Cc2ccccc2)C(=O)N1C (stereo not drawn) [Compound 12] (Ac-[X3][PhLac][NMeDha]A[NMeA][ξLeu(3ξ-OH)][NMeT](Me); ester 1-C; configuration not given here) | > 3.000 fold | 106 A^2 | 1180 nM | 1180 nM | 994 nM | 1350 nM | > 10000 nM | > 10000 nM | > 10000 nM | > 10000 nM | 9.9% | 83% | 0.55 ×10⁻⁶ cm/s | > 10000 nM | > 10000 nM | > 10000 nM | > 10000 nM | 1740 nM | 1740 nM | 1130 nM | change in EPSA (in words) [2, 23]: slight changes; reduction in % FA (MDCK-LE monolayers; [23]): ~5 fold; fold change compared to compound (A1), inhibition of Gαq proteins (Gαq proteins): 16 fold; GI50 [6, 22]: 2350 nM |
